The supplement of paper PMC10307832

Experiments:
Assay in all cases: relative viability (nuclei count vs DMSO), 5 days (fraction); higher = more cells survive
[1] = compound: CC[C@H](Nc1ncnc2[nH]cnc12)c1nc2cccc(F)c2c(=O)n1-c1ccccc1 [Idelalisib] + COc1cc2c(Oc3ccc(NC(=O)C4(C(=O)Nc5ccc(F)cc5)CC4)cc3F)ccnc2cc1OCCCN1CCOCC1 [Foretinib] (partner 0.25 µM)
Summary of the method: (§1)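 Values are medians from duplicate plates. Each reflects relative viability, defined as the nuclei count of treated wells over that of vehicle wells. Lung cancer cell lines in 1536-well plates were pin-tool dosed one day after seeding with one drug alone or with a fixed anchor-drug dose plus five library-drug doses (not always all listed) in √10 steps, then fixed, stained and imaged at 4× after 5 days.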

[2] = compound: Nc1nc2[nH]cc(CCc3ccc(C(=O)N[C@@H](CCC(=O)O)C(=O)O)cc3)c2c(=O)[nH]1 [Pemetrexed] + CS(=O)(=O)N1CCN(Cc2cc3nc(-c4cccc5[nH]ncc45)nc(N4CCOCC4)c3s2)CC1 [Pictilisib] (partner 1 µM)
Summary of the method: as §1

[3] = compound: Nc1nc2[nH]cc(CCc3ccc(C(=O)N[C@@H](CCC(=O)O)C(=O)O)cc3)c2c(=O)[nH]1 [Pemetrexed] + CS(=O)(=O)CCNCc1ccc(-c2ccc3ncnc(Nc4ccc(OCc5cccc(F)c5)c(Cl)c4)c3c2)o1 [Lapatinib] (partner 2 µM)
Summary of the method: as §1

[4] = compound: CC[C@H](Nc1ncnc2[nH]cnc12)c1nc2cccc(F)c2c(=O)n1-c1ccccc1 [Idelalisib] + Nc1ncn([C@H]2C[C@H](O)[C@@H](CO)O2)c(=O)n1 [Decitabine] (partner 2 µM)
Summary of the method: as §1

| Cell Line | relative viability ([1]; first compound 0.04 µM) | relative viability ([1]; first compound 0.1265 µM) | relative viability ([1]; first compound 0.4 µM) | relative viability ([1]; first compound 1.265 µM) | relative viability ([1]; first compound 4 µM) | relative viability ([2]; first compound 0.002 µM) | relative viability ([2]; first compound 0.006325 µM) | relative viability ([2]; first compound 0.02 µM) | relative viability ([2]; first compound 0.06325 µM) | relative viability ([2]; first compound 0.2 µM) | relative viability ([3]; first compound 0.002 µM) | relative viability ([3]; first compound 0.006325 µM) | relative viability ([3]; first compound 0.02 µM) | relative viability ([3]; first compound 0.06325 µM) | relative viability ([3]; first compound 0.2 µM) | relative viability ([4]; first compound 0.04 µM) | relative viability ([4]; first compound 0.1265 µM) | relative viability ([4]; first compound 0.4 µM) | relative viability ([4]; first compound 1.265 µM) | relative viability ([4]; first compound 4 µM) |
| --- | --- | --- | --- | --- | --- | --- | --- | --- | --- | --- | --- | --- | --- | --- | --- | --- | --- | --- | --- | --- |
| LU99A | 0.939 | 0.847 | 0.775 | 0.79 | 0.775 | 0.329 | 0.295 | 0.332 | 0.334 | 0.256 | 0.926 | 0.909 | 0.991 | 0.97 | 0.744 | 0.876 | 0.843 | 0.777 | 1.02 | 0.914 |
| LC-2-ad | 0.978 | 0.857 | 0.733 | 0.943 | 0.85 | 0.402 | 0.306 | 0.428 | 0.211 | 0.123 | 0.747 | 1.01 | 1.01 | 0.27 | 0.179 | 0.789 | 0.797 | 0.811 | 0.825 | 0.711 |
| NCI-H1650 | 1.33 | 1.42 | 0.944 | 0.864 | 0.917 | 0.545 | 0.559 | 0.658 | 0.333 | 0.226 | 0.804 | 0.699 | 0.8 | 0.505 | 0.349 | 0.456 | 0.465 | 0.515 | 0.359 | 0.448 |
| NCI-H1915 | 1.15 | 1.1 | 1.09 | 1.19 | 1.09 | 0.786 | 0.933 | 1.13 | 0.929 | 0.957 | 0.945 | 0.988 | 1.1 | 0.987 | 0.971 | 0.256 | 0.249 | 0.269 | 0.253 | 0.256 |
| ABC-1 | 1.09 | 1.06 | 0.853 | 0.963 | 0.977 | 0.947 | 0.662 | 0.954 | 0.826 | 0.706 | 1.35 | 1.16 | 1.25 | 1.05 | 1.16 | 1.03 | 1.2 | 1.08 | 1.17 | 1.15 |
| HCC-78 | 0.612 | 0.594 | 0.462 | 0.528 | 0.434 | – | 0.179 | 0.197 | 0.14 | 0.157 | – | 0.796 | 0.58 | 0.223 | 0.153 | 0.738 | 0.731 | 0.667 | 0.647 | 0.665 |
| LXF-289 | 0.946 | 0.979 | 0.928 | 1.14 | 0.951 | 0.756 | 0.759 | 0.844 | 0.827 | 0.701 | 0.822 | 0.862 | 0.949 | 0.899 | 0.874 | 0.438 | 0.402 | 0.368 | 0.438 | 0.395 |
| 201T | 1.09 | 1.07 | 0.741 | 1.11 | 0.993 | 0.625 | 0.698 | 0.715 | 0.632 | 0.5 | 0.977 | 1.04 | 1.1 | 1.07 | 1 | 0.876 | 0.864 | 0.841 | 0.904 | 0.77 |
| NCI-H1734 | 0.911 | 0.911 | 0.836 | 0.957 | 0.642 | 0.461 | 0.457 | 0.489 | 0.475 | 0.376 | 0.724 | 0.995 | 1.13 | 1.01 | 0.525 | 0.522 | 0.461 | 0.497 | 0.518 | 0.496 |
| NCI-H2126 | 1.21 | 1.26 | 1.06 | 1.33 | 1.09 | 0.451 | 0.479 | 0.494 | 0.487 | 0.436 | 0.75 | 0.747 | 0.789 | 0.747 | 0.739 | 0.545 | 0.56 | 0.532 | 0.548 | 0.524 |
| LOU-NH91 | 1.03 | 0.912 | 0.888 | 0.803 | 0.864 | 0.511 | 0.488 | 0.551 | 0.453 | 0.392 | 0.799 | 0.792 | 0.734 | 0.58 | 0.514 | 0.789 | 0.84 | 0.79 | 0.78 | 0.816 |
| NCI-H1651 | 0.761 | 0.799 | 0.702 | 0.735 | 0.561 | 0.627 | 0.49 | 0.658 | 0.554 | 0.556 | 0.9 | 0.767 | 0.819 | 0.85 | 0.725 | 0.717 | 0.374 | 0.611 | 0.578 | 0.651 |
| A549 | 1.18 | 1.03 | 0.917 | 1 | 1.01 | 0.42 | 0.519 | 0.602 | 0.483 | 0.489 | 0.841 | 0.947 | 1.13 | 0.987 | 0.973 | 0.263 | 0.281 | 0.21 | 0.345 | 0.247 |
| HCC-366 | 0.947 | 0.867 | 0.889 | 0.971 | 0.938 | 0.193 | 0.133 | 0.151 | 0.127 | 0.14 | 1.01 | 1.02 | 1.16 | 0.993 | 0.381 | 0.348 | 0.395 | 0.309 | 0.372 | 0.299 |
| EKVX | 0.826 | 0.984 | 0.773 | 0.843 | 0.808 | 0.408 | 0.441 | 0.418 | 0.432 | 0.269 | 0.17 | 0.191 | 0.194 | 0.185 | 0.182 | 0.323 | 0.341 | 0.334 | 0.294 | 0.316 |
| NCI-H1993 | 0.967 | 0.843 | 0.649 | 0.837 | 0.737 | 0.899 | 0.97 | 0.819 | 0.743 | 0.882 | 0.863 | 0.887 | 0.869 | 0.754 | 0.665 | 0.53 | 0.584 | 0.588 | 0.545 | 0.501 |
